Measured values published in ChEMBL document CHEMBL5727418, “Substituted imidazo[2,1-f][1,2,4]triazines, substituted imidazo[1,2-a]pyridines and substituted imidazo[1,2-b]pyridazines as PI3K-gamma inhibitors” (2019).

What was measured:
[1] = target: Phosphatidylinositol 4,5-bisphosphate 3-kinase catalytic subunit gamma isoform (Homo sapiens, UniProt P48736); assay: PI3Kγ (p110γ) Recombinant Human Protein was purchased from Life technology (Grand Island, N.Y.). […] Inhibitors were first diluted serially in DMSO and added to the plate wells before the addition of other reaction components. The final concentration of DMSO in the assay was 2%. The PI3Kγ assay was carried out at room temperature in 20 mM MOPS, pH 6.7, 10 mM MgCl2, 5 mM DTT and CHAPS 0.03%. […] The final concentration of SPA beads is 1.0 mg/mL. After the plate sealing, plates were shaken overnight at room temperature and centrifuged at 1500 rpm for 10 min, the radioactivity of the product was determined by scintillation counting on Topcount (Perkin-Elmer).
[2] = target: T1, Phosphatidylinositol 4,5-bisphosphate 3-kinase catalytic subunit delta isoform (Homo sapiens, UniProt O00329); assay: Scintillation Proximity Assay: PI3Kδ:[γ-33P]ATP (10 mCi/mL) and Wheat Germ Agglutinin (WGA) YSi SPA Scintillation Beads was purchased from Perkin-Elmer (Waltham, Mass.). Lipid kinase substrate, D-myo-Phosphatidylinositol 4,5-bisphosphate (PtdIns(4,5)P2)D (+)-sn-1,2-di-O-octanoylglyceryl, 3-O-phospho linked (PIP2), CAS 204858-53-7, was purchased from Echelon Biosciences (Salt Lake City, Utah). PI3Kδ (p110δ/p85α) Recombinant Human Protein was purchased from Eurofins (St Charles, Mo.). ATP, MgCl2, DTT, EDTA, MOPS and CHAPS were purchased from Sigma-Aldrich (St. Louis, Mo.).The kinase reaction was conducted in polystyrene 384-well Greiner Bio-one white plate from Thermo Fisher Scientific in a final volume of 25 μL. Inhibitors were first diluted serially in DMSO and added to the plate wells before the addition of other reaction components. The final concentration of DMSO in the assay was 2%. The PI3Kδ assay was carried out at room temperature in 20 mM MOPS, pH 6.7, 10 mM MgCl2, 5 mM DTT and CHAPS 0.03%. Reactions were initiated by the addition of ATP, the final reaction mixture consisted of 20 μM PIP2, 2 μM ATP, 0.5 μCi [γ-33P] ATP, 3.4 nM PI3Kδ. Reactions were incubated for 120 min and terminated by the addition of 40 μL SPA beads suspended in quench buffer: 163 mM potassium phosphate pH 7.8, 20% glycerol, 25 mM EDTA. The final concentration of SPA beads is 1.0 mg/mL. […]
T1 sequence (O00329 whole entry): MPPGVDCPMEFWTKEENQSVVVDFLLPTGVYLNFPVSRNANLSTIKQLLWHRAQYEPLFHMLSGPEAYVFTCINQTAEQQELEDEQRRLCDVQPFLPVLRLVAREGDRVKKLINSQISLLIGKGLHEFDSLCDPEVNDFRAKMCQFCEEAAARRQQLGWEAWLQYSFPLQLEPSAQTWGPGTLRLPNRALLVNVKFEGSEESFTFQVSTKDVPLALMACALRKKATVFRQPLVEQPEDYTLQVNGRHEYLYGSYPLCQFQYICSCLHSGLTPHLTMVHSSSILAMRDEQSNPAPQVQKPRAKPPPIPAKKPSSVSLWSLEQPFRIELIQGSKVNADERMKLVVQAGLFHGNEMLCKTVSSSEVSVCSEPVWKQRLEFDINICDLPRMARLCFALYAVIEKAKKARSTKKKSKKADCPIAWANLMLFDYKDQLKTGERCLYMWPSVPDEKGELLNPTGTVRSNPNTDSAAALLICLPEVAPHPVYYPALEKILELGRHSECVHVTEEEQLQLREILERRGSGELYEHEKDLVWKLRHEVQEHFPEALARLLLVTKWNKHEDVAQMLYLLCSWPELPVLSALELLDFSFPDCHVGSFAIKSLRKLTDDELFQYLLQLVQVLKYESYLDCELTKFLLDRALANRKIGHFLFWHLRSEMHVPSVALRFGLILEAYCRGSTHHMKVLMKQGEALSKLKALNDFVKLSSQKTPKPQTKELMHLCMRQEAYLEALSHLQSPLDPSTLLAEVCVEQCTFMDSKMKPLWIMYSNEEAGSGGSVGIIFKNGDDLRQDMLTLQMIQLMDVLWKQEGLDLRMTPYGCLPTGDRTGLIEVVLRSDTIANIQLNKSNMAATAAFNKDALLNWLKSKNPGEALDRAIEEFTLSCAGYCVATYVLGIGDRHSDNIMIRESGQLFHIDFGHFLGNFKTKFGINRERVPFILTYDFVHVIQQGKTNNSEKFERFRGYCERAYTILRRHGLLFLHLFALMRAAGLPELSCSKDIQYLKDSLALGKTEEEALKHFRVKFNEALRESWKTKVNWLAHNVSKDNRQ

Chain of Phosphatidylinositol 4,5-bisphosphate 3-kinase catalytic subunit gamma isoform (P48736 whole entry, canonical isoform): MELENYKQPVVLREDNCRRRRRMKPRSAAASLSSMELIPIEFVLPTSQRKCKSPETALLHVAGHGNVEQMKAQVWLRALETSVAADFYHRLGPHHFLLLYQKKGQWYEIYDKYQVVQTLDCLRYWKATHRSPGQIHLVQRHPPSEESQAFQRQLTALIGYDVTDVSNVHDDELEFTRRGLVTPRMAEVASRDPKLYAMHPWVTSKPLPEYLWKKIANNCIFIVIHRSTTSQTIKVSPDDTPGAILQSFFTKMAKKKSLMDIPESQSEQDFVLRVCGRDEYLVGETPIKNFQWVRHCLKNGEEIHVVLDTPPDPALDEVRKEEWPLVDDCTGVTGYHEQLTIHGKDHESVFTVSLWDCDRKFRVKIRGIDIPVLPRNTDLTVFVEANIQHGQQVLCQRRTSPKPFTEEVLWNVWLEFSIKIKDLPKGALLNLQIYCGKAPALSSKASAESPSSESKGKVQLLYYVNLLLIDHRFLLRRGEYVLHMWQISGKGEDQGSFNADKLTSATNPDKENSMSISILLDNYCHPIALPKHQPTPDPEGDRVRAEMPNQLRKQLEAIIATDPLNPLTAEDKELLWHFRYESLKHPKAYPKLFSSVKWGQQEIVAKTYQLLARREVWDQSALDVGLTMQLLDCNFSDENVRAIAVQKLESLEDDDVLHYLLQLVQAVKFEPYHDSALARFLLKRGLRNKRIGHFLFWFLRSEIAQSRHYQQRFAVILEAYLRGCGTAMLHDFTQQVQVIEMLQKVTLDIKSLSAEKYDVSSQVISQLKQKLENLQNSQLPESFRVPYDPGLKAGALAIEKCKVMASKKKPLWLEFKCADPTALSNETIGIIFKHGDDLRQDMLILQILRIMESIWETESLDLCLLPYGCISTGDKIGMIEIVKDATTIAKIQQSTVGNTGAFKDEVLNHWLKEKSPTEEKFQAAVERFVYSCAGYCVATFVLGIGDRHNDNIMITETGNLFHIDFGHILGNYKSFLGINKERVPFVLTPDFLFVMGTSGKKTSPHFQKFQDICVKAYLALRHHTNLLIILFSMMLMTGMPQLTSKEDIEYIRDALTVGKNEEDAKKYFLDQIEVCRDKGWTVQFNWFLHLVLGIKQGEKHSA

SMILES: Cc1ccc(S(=O)(=O)CC2CCC2)cc1-c1cnc2c(N)ncnn12
- IC50 [1]: < 0.5 µM
- IC50 [2]: < 2 µM
